What follows are molecules tested against unphosphorylated-BTK kinase domain (UP-BTK), GST-tagged human BTK (389-659aa) (Homo sapiens (Human), UniProt Q06187) (assay: BTK Kinase Lanthascreen Binding Assay). Details: compound, 50 nM Tracer 236, 2 nM anti-GST antibody, 60 minutes; pIC50 = negative log of the IC50 in molar.
Experimental: BTK Kinase Lanthascreen Binding Assay:
A BTK kinase lanthascreen binding assay monitors compound binding to unphosphorylated-BTK kinase domain (UP-BTK), by competing with a fluorescent labeled tracer. […] Data were analyzed using Xlfit™ version 5.3 from ID Business Solutions (Guildford), Microsoft Excel add-in. pIC50 refers to the negative log of the IC50 in molar.

Sequence of unphosphorylated-BTK kinase domain (UP-BTK), GST-tagged human BTK (389-659aa) (Q06187 389-659): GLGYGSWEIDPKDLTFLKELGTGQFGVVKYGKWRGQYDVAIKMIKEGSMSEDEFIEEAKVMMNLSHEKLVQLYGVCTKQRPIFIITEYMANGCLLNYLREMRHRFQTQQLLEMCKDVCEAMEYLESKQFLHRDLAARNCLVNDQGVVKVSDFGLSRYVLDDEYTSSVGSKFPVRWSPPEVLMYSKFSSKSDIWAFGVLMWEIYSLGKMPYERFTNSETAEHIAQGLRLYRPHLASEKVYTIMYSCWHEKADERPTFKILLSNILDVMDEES

Row | SMILES | BTK_I_binding pIC50
1 | C=CC(=O)N[C@@H]1CC[C@H](NC(=O)c2sc3nccc4c3c2NC(=O)N4c2ccc(Oc3ccccc3)cc2C)C1 (single isomer, unassigned) [Example 101, N-((1S,3R)-3-Acrylamidocyclopentyl)-5-(*S)-(2-methyl-4-phenoxyphenyl)-4-oxo-4,5-dihydro-3H-1-thia-3,5,8-triazaacenaphthylene-2-carboxamide] | 7.95
2 | C=CC(=O)N[C@@H]1CCC[C@H]1NC(=O)c1sc2nccc3c2c1NC(=O)N3c1ccc(Oc2ccccc2)cc1C (single isomer, unassigned) [Example 105, N-((1R,2R)-2-Acrylamidocyclopentyl)-5-(*S)-(2-methyl-4-phenoxyphenyl)-4-oxo-4,5-dihydro-3H-1-thia-3,5,8-triazaacenaphthylene-2-carboxamide] | 8.11
3 | C=CC(=O)N[C@H]1CCC[C@H]1NC(=O)c1sc2nccc3c2c1NC(=O)N3c1ccc(Oc2ccccc2)cc1C (single isomer, unassigned) [Example 107, N-((1R,2S)-2-Acrylamidocyclopentyl)-5-(*S)-(2-methyl-4-phenoxyphenyl)-4-oxo-4,5-dihydro-3H-1-thia-3,5,8-triazaacenaphthylene-2-carboxamide] | 8.25
4 | C=CC(=O)N[C@H]1CCCC[C@H]1NC(=O)c1sc2nccc3c2c1NC(=O)N3c1ccc(Oc2ccccc2)cc1C (single isomer, unassigned) [Example 108, N-((1R,2S)-2-Acrylamidocyclohexyl)-5-(*S)-(2-methyl-4-phenoxyphenyl)-4-oxo-4,5-dihydro-3H-1-thia-3,5,8-triazaacenaphthylene-2-carboxamide] | 7.56
5 | Cc1cc(Oc2ccccc2)ccc1N1C(=O)Nc2c(C(=O)N[C@@H]3CCC[C@H]3NC(=O)CN(C)C)sc3nccc1c23 (single isomer, unassigned) [Example 111, N-((1R,2R)-2-(2-(Dimethylamino)acetamido)cyclopentyl)-5-(*S)-(2-methyl-4-phenoxyphenyl)-4-oxo-4,5-dihydro-3H-1-thia-3,5,8-triazaacenaphthylene-2-carboxamide] | 7.68
6 | CNCC(=O)N[C@@H]1CCC[C@H]1NC(=O)c1sc2nccc3c2c1NC(=O)N3c1ccc(Oc2ccccc2)cc1C (single isomer, unassigned) [Example 112, 5-(*S)-(2-Methyl-4-phenoxyphenyl)-N-((1R,2R)-2-(2-(methylamino)acetamido)cyclopentyl)-4-oxo-4,5-dihydro-3H-1-thia-3,5,8-triazaacenaphthylene-2-carboxamide] | 8.04
7 | Cc1cc(Oc2ccccc2)ccc1N1C(=O)Nc2c(C(=O)N[C@@H]3CCC[C@H]3NC(=O)CN)sc3nccc1c23 (single isomer, unassigned) [Example 113, N-((1R,2R)-2-(2-Aminoacetamido)cyclopentyl)-5-(*S)-(2-methyl-4-phenoxyphenyl)-4-oxo-4,5-dihydro-3H-1-thia-3,5,8-triazaacenaphthylene-2-carboxamide] | 7.88
8 | C=CC(=O)N[C@@H]1CCC[C@@H]1NC(=O)c1sc2nccc3c2c1NC(=O)N3c1ccc(Oc2ccccc2)cc1C (single isomer, unassigned) [Example 114, N-((1S,2R)-2-Acrylamidocyclopentyl)-5-(*S)-(2-methyl-4-phenoxyphenyl)-4-oxo-4,5-dihydro-3H-1-thia-3,5,8-triazaacenaphthylene-2-carboxamide] | 6.81
9 | Cc1cc(Oc2ccccc2)ccc1N1C(=O)Nc2c(C(=O)N[C@@H]3CCC[C@@H]3N)sc3nccc1c23 (single isomer, unassigned) [Example 115, N-((1R,2S)-2-Aminocyclopentyl)-5-(*S)-(2-methyl-4-phenoxyphenyl)-4-oxo-4,5-dihydro-3H-1-thia-3,5,8-triazaacenaphthylene-2-carboxamide] | 7.57
10 | C=CC(=O)N[C@H]1CCC[C@@H]1NC(=O)c1sc2nccc3c2c1NC(=O)N3c1ccc(Oc2ccccc2)cc1C (single isomer, unassigned) [Example 116, N-((1S,2S)-2-Acrylamidocyclopentyl)-5-(*S)-(2-methyl-4-phenoxyphenyl)-4-oxo-4,5-dihydro-3H-1-thia-3,5,8-triazaacenaphthylene-2-carboxamide] | 7.30

Now from value to molecule:

Row | BTK_I_binding pIC50 | SMILES
11 | 7.87 | CCC(=O)N[C@@H]1CC[C@H](NC(=O)c2sc3nccc4c3c2NC(=O)N4c2ccc(Oc3ccccc3)cc2C)C1 (single isomer, unassigned) [Example 87, 5-(*S)-(2-Methyl-4-phenoxyphenyl)-4-oxo-N-((1S,3R)-3-propionamidocyclopentyl)-4,5-dihydro-3H-1-thia-3,5,8-triazaacenaphthylene-2-carboxamide]
12 | 6.91 | CCC(=O)N[C@H]1CC[C@@H](NC(=O)c2sc3nccc4c3c2NC(=O)N4c2ccc(Oc3ccccc3)cc2C)CC1 (single isomer, unassigned) [Example 92, 5-(*S)-(2-Methyl-4-phenoxyphenyl)-4-oxo-N-((1S,4S)-4-propionamidocyclohexyl)-4,5-dihydro-3H-1-thia-3,5,8-triazaacenaphthylene-2-carboxamide]
13 | 6.99 | CCC(=O)N[C@H]1CC[C@@H](NC(=O)c2sc3nccc4c3c2NC(=O)N4c2ccc(Oc3ccccc3)cc2C)CC1 (single isomer, unassigned) [Example 93, 5-(*R)-(2-Methyl-4-phenoxyphenyl)-4-oxo-N-((1S,4S)-4-propionamidocyclohexyl)-4,5-dihydro-3H-1-thia-3,5,8-triazaacenaphthylene-2-carboxamide]
14 | 7.59 | CC(=O)N[C@H]1CC[C@@H](NC(=O)c2sc3nccc4c3c2NC(=O)N4c2ccc(Oc3ccccc3)cc2C)CC1 (single isomer, unassigned) [Example 94, N-((1S,4S)-4-Acetamidocyclohexyl)-5-(*S)-(2-methyl-4-phenoxyphenyl)-4-oxo-4,5-dihydro-3H-1-thia-3,5,8-triazaacenaphthylene-2-carboxamide]
15 | 6.14 | CC(=O)N[C@H]1CC[C@@H](NC(=O)c2sc3nccc4c3c2NC(=O)N4c2ccc(Oc3ccccc3)cc2C)CC1 (single isomer, unassigned) [Example 95, N-((1S,4S)-4-Acetamidocyclohexyl)-5-(*R)-(2-methyl-4-phenoxyphenyl)-4-oxo-4,5-dihydro-3H-1-thia-3,5,8-triazaacenaphthylene-2-carboxamide]
16 | 7.50 | Cc1cc(Oc2ccccc2)ccc1N1C(=O)Nc2c(C(=O)N[C@H]3CC[C@@H](NC(=O)CN(C)C)C3)sc3nccc1c23 (single isomer, unassigned) [Example 102, N-((1S,3R)-3-(2-(dimethylamino)acetamido)cyclopentyl)-5-(*S)-(2-methyl-4-phenoxyphenyl)-4-oxo-4,5-dihydro-3H-1-thia-3,5,8-triazaacenaphthylene-2-carboxamide]
17 | 7.40 | CNCC(=O)N[C@@H]1CC[C@H](NC(=O)c2sc3nccc4c3c2NC(=O)N4c2ccc(Oc3ccccc3)cc2C)C1 (single isomer, unassigned) [Example 103, 5-(*S)-(2-Methyl-4-phenoxyphenyl)-N-((1S,3R)-3-(2-(methylamino)acetamido)cyclopentyl)-4-oxo-4,5-dihydro-3H-1-thia-3,5,8-triazaacenaphthylene-2-carboxamide]

Reference: patent publication US10934310B2, “Inhibitors of Bruton's tyrosine kinase and method of their use” (JANSSEN PHARMACEUTICA NV, priority 2015, dated 2021)
